In patent US20160221932A1, “Methods and Uses of Melatonin Ligands” (priority 2013, published 2016):
“Also recorded” adds a separate entry of the source.

What was measured:
human-cloned MT1 = target: T1, human-cloned MT1 (Homo sapiens, UniProt P48039); experiment: impedance assay in CHO cells expressing human-cloned MT1 (functional activity); assay type: cell-based; conditions: for activity for the MLT receptor subtype MT1 (in words): CHO cells; as to MT1 Activity: key: A = ago0nist; PA = partial agonist; ANT = antagonits
T1 construct: expressed in transfected cells
T1 sequence (P48039 whole entry): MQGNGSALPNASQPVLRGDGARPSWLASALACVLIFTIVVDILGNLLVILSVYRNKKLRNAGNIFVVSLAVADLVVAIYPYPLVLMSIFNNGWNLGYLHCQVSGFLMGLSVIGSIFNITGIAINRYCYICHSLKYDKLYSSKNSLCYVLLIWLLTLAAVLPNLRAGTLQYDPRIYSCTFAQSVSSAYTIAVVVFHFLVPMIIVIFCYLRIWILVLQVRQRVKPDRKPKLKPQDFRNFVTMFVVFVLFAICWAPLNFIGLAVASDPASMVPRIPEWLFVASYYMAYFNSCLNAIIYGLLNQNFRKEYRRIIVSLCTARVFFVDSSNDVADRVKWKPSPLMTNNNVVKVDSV

[1] = tested on: rats with L5-L6 spinal nerves ligation; experiment: L5-L6 spinal nerves ligature model, von Frey paw withdrawal threshold; assay type: in vivo, rat; conditions: for AUC of the antiallodynic effect across 8 h: mean±SEM, VEH 36.24±1.8 g; for AUC antiallodynic effect compared with GBP 100 mg/kg / AUC antiallodynic effect compared with MLT 150 mg/kg: doses of 20 and 40 mg/kg; for tactile allodynia in L5-L6 nerve ligated rats / analgesic effect in allodynic rats: summary statement; for tactile allodynia in L5-L6 nerve ligated rats: hindpaw withdrawal threshold to mechanical stimulation; for analgesic effect in allodynic rats: hindpaw withdrawal threshold vs untreated allodynic rats
Experimental: Animals: Wistar rats (150-250 g, Charles-River Saint-Constant, Quebec, Canada) were used for the formalin test, hot plate test and L5-L6 spinal nerves ligature model. The animals were housed at constant room temperature and humidity under a 12 h light/dark cycle (lights on at 7 AM). Food and water were available ad libitum.
L5-L6 Spinal Nerves Ligature: Nerve injury results in abnormal pain perception, known as neuropathic pain, which is associated with hyperalgesia (high pain sensibility) and allodynia (pain perception induced by innocuous stimuli) (Campbell and Meyer, 2006). The rat model for neuropathic pain develop by Kim and Chung (Kim and Chung, 1992) was used in which the L5 and L6 spinal nerves were ligated and two weeks later allodynia was measured by paw stimulation with von Frey filaments. Briefly, animals were anesthetized with a mixture of ketamine/xylazine/acepromazine (i.p.). Following surgical preparation and exposure of the dorsal vertebral column, the left L5 and L6 spinal nerves were exposed and tightly ligated with 3.0 chromic catgut suture distal to the dorsal root ganglion. For sham-operated rats, the nerves were exposed but not ligated. The incisions were closed using 3.0 vicryl sutures, and the animals were allowed to recover for 13 days.
On day 14 after surgery, rats were singularly placed in a test chamber (clear plastic, wire mesh-bottomed cage) and allowed to acclimatize for 30-40 min. Von Frey filaments (Stoelting, Wood Dale, Ill., USA) were used to measure the 50% paw withdrawal threshold using the up and down method by (Chaplan et al., 1994). […] Lifting of the paw indicated a positive response and prompted the use of the next weaker filament, whereas absence of paw withdrawal after 5 s indicated a negative response and prompted the next filament of increasing weight. This paradigm continued for four more measurements after the initial change of the behavioral response, or until five consecutive negative (assigned a score of 15 g), or four consecutive positive (assigned a score of 0.25 g) responses. The resulting score were used to calculate the 50% response threshold by using the formula proposed by Dixon et al., 1980.
Allodynia was considered to be present when paw withdrawal thresholds were less than 4 g. (Chaplan et al., 1994). All nerve-ligated rats were verified to be allodynic, responding to a stimulus of less than 4 g. Rats without allodynia were excluded. Following the determination of the basal response, tactile allodynia was assessed at 0.5, 1, 2, 3, 4, 5, 6, 7 and 8 h post-administration for each treatment below described.
[…] […] Another group of rats received only the vehicle (VEH) consisting on a 70% DMSO/saline solution (0.9% NaCl). All treatments were administered in a single subcutaneous injection with a volume of 1 ml. Rats were tested at 0 h (basal withdrawal threshold) and 0.5, 1, 2, 3, 4, 5, 6, 7 and 8 h post-treatment administration.
Statistical Analysis: Data analysis was done using SigmaPlot 12 (Systat Software, Inc.). Two-way ANOVA for repeated measures was used to analyze data from L5-L6 models using treatments (between) and testing time (within) as factors. One-way ANOVA was used to analyze AUC in the L5-L6 spinal nerves ligation model. One-way ANOVA was used for formalin and hot-plate tests. Post-hoc analyses were performed using Bonferroni t-test comparisons or Student-Newman-Keuls (SNK) test. All data are expressed as mean±Standard Error of the Mean (SEM). P<0.05 was considered significant.

human MT1 receptor = target: T2, human MT1 receptor (Homo sapiens, UniProt P48039); experiment: 2-[125I]iodomelatonin competition binding, human MT1 in CHO cells; conditions: human MT1 stably expressed in CHO cells, calculated from IC50 by Cheng and Prusoff
T2 construct: expressed in transfected cells
T2 sequence (P48039 whole entry): as above

Wistar rats = experiment: hot plate test; assay type: in vivo, rat; conditions: for withdrawal temperature compared to untreated rats: summary statement, dose not stated
Experimental: Animals: Wistar rats (150-250 g, Charles-River Saint-Constant, Quebec, Canada) were used for the formalin test, hot plate test and L5-L6 spinal nerves ligature model. The animals were housed at constant room temperature and humidity under a 12 h light/dark cycle (lights on at 7 AM). Food and water were available ad libitum. Hot plate test: The hot-plate test was performed by using an electronically controlled hot-plate (Ugo Basile, Italy). The initial temperature was 38° C. A near linear increase in temperature (3° C. per min) was obtained by turning the heating adjustment to maximum. The temperature at which the fast hindpaw lick occurred was recorded as the nociceptive end-point. If no hindpaw lick was observed, the test was terminated at 52° C., and this cut-off value was used in the analysis. The plate was wiped with a wet cloth, and a fan located behind the plate allowed rapid cooling so that testing could be conducted every 7.5 min. Statistical Analysis: Data analysis was done using SigmaPlot 12 (Systat Software, Inc.). Two-way ANOVA for repeated measures was used to analyze data from L5-L6 models using treatments (between) and testing time (within) as factors. One-way ANOVA was used to analyze AUC in the L5-L6 spinal nerves ligation model. One-way ANOVA was used for formalin and hot-plate tests. Post-hoc analyses were performed using Bonferroni t-test comparisons or Student-Newman-Keuls (SNK) test. All data are expressed as mean±Standard Error of the Mean (SEM). P<0.05 was considered significant.

[2] = target: T3, human-cloned MT2 receptors (Homo sapiens, UniProt P49286); experiment: cAMP assay in CHO cells expressing human-cloned MT2 (functional activity); assay type: cell-based; conditions: CHO cells
T3 construct: expressed in transfected cells
T3 sequence (P49286 1-362): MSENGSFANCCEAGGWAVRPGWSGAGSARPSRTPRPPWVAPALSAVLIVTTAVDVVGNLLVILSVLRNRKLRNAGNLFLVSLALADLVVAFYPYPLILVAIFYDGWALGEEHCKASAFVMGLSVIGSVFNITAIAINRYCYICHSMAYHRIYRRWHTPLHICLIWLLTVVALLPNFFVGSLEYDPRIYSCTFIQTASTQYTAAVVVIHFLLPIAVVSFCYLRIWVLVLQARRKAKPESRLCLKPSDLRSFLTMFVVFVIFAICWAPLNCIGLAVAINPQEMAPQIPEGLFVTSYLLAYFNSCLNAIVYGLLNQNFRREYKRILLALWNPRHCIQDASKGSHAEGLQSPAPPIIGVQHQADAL

human MT2 receptor = target: T4, human MT2 receptor (Homo sapiens, UniProt P49286); experiment: 2-[125I]iodomelatonin competition binding, human MT2 in CHO cells
T4 construct: expressed in transfected cells
T4 sequence (P49286 1-362): T3 sequence (P49286 1-362)

[3] = 20 mg/kg s.c., at 3 h (5b) or 5 h (5p) post-administration
[4] = 40 mg/kg s.c., at 2 h (5b) or 5 h (5p) post-administration
[5] = 20 mg/kg s.c., 30 min post treatment
[6] = 20 mg/kg s.c., 1 hour post treatment
[7] = 20 mg/kg s.c., 4 hours post treatment
[8] = 40 mg/kg, 1 hour post treatment
[9] = 40 mg/kg, 4 hours post treatment

Row | activity for the MLT receptor subtype MT1 (in words) (human-cloned MT1) | SMILES | AUC of the antiallodynic effect across 8 h ([1]; 5 mg/kg s.c.) [g] | AUC of the antiallodynic effect across 8 h ([1]; 10 mg/kg s.c.) [g] | duration of effect on paw withdrawal threshold, post-administration ([1]; 20 mg/kg s.c.) | reduction of the mechanical allodynia above the threshold (4 g) ([1]; 20 mg/kg s.c.) | start of increase of paw withdrawal threshold, post-administration ([1]; 20 mg/kg s.c.) [h] | highest increase in paw withdrawal threshold [1, 3] [% from basal] | AUC of the antiallodynic effect across 8 h ([1]; 20 mg/kg s.c.) [g] | duration of effect on paw withdrawal threshold, post-administration ([1]; 40 mg/kg s.c.) | reduction of the mechanical allodynia above the threshold (4 g) ([1]; 40 mg/kg s.c.) | start of increase of paw withdrawal threshold, post-administration ([1]; 40 mg/kg s.c.) [h] | highest increase in paw withdrawal threshold [1, 4] [% from basal] | AUC of the antiallodynic effect across 8 h ([1]; 40 mg/kg s.c.) [g] | AUC antiallodynic effect compared with GBP 100 mg/kg [1] | AUC antiallodynic effect compared with MLT 150 mg/kg [1] | tactile allodynia in L5-L6 nerve ligated rats [1] | analgesic effect in allodynic rats [1] | withdrawal temperature vs vehicle (Wistar rats; [5]) | withdrawal temperature vs vehicle (Wistar rats; [6]) | withdrawal temperature vs vehicle (Wistar rats; [7]) | also measured
1 | partial agonist activity | COc1cccc(N(CCNC(C)=O)c2ccccc2)c1 [5b, N-{2-[(3-Methoxyphenyl)-phenylamino]ethyl}acetamide] | 81.11 ± 4.8 | 70.24 ± 4.23 | up to 5 h | reduction of the mechanical allodynia above the threshold | 1 | 419 | 219.12 ± 24.13 | ≤ 6 h | reduction of the mechanical allodynia above the threshold | 0.5 | 395 | 220.13 ± 13.65 | comparable | superior to MLT | reversed tactile allodynia; also recorded: reduced allodynia | increased the analgesic effect | significant increase of the withdrawal temperature | increase of withdrawal temperature; also recorded: increased the withdrawal temperature | significant increase of withdrawal temperature; also recorded: increased the withdrawal temperature | MT1 pKi (human MT1 receptor): 8.38; withdrawal temperature vs vehicle (Wistar rats; [8]): increase of withdrawal temperature; withdrawal temperature vs vehicle (Wistar rats; [9]): significant increase of withdrawal temperature; withdrawal temperature compared to untreated rats (Wistar rats): significant increase in withdrawal temperature; activity for the MLT receptor subtype MT2 (in words) [2]: partial agonist activity; MT2 affinity compared with melatonin (human MT2 receptor): better MT2 affinity than melatonin; MT2-selectivity (human MT2 receptor; MT2 versus MT1): good MT2-selectivity; MT2 pKi (human MT2 receptor; human MT2 stably expressed in CHO cells, calculated from IC50 by Cheng and Prusoff): 10.18
2 | antagonist | CC(=O)NCCN(c1ccc(F)cc1)c1cccc(Br)c1 [5p, N-{2-[(3-Bromophenyl)-4-fluorophenylamino]ethyl}acetamide] | 89.03 ± 6.33 | 127.75 ± 12.08 | up to 6 h | reduction of the mechanical allodynia | 1 | 394 | 245.9 ± 19.9 | up to 6 h | reduction of the mechanical allodynia | 1 | 427.65 | 230.33 ± 17.69 | comparable | greater antiallodynic effect | reduced allodynia; also recorded: reversed tactile allodynia | increased the analgesic effect | significant increase of the withdrawal temperature | increase of withdrawal temperature; also recorded: increased the withdrawal temperature | significant increase of withdrawal temperature; also recorded: increased the withdrawal temperature | MT1 Activity (human-cloned MT1; intrinsic activity, human MT1 in CHO cells): ANT; duration of effect on paw withdrawal threshold, post-administration ([1]; 10 mg/kg s.c.): up to 3 h; start of increase of paw withdrawal threshold, post-administration ([1]; 10 mg/kg s.c.): 1 h; Ki (human MT1 receptor; read-out: MT1 pKi (converted)): 178 nM; withdrawal temperature vs vehicle (Wistar rats; [8]): increase of withdrawal temperature; withdrawal temperature vs vehicle (Wistar rats; [9]): significant increase of withdrawal temperature; withdrawal temperature compared to untreated rats (Wistar rats): significant increase in withdrawal temperature; activity for the MLT receptor subtype MT2 (in words) [2]: partial agonist activity; Ki (human MT2 receptor; human MT2 stably expressed in CHO cells, calculated from IC50 by Cheng and Prusoff, read-out: MT2 pKi (converted)): 0.537 nM
